ChEMBL document CHEMBL1201862, “PubChem BioAssay data set” (2004)
Calls of active or inactive are those of the source.

Experiments:
[1] = target: T1, Voltage-gated N-type calcium channel alpha-1B subunit/Amyloid beta A4 precursor protein-binding family A member 1 (Homo sapiens, UniProt Q00975+Q02410); assay: disruptors of Mint-PDZ/N-type channel peptide interaction – biochemical, HTRF, set 2, SAR follow-up (AID 434980); format: functional
[2] = target: T1, Voltage-gated N-type calcium channel alpha-1B subunit/Amyloid beta A4 precursor protein-binding family A member 1; assay: disruptors of Mint-PDZ/N-type channel peptide interaction – biochemical, HTRF, SAR follow-up (AID 2489); format: functional
[3] = target: C-C chemokine receptor type 6 (Homo sapiens, UniProt P51684); assay: antagonism of CCR6 beta-arrestin recruitment – cell-based, luminescent beta-arrestin readout, dose response (AID 504728); format: functional
Beta-galactosidase = Beta-galactosidase (Escherichia coli, UniProt Q8VNN2); assay: detection-enzyme interference by beta-gal modulators – biochemical, E. coli enzyme, set 3, artefact control for CCR6 antagonist project, dose response (AID 504712); format: functional
[4] = target: Heat shock protein HSP 90-alpha (Homo sapiens, UniProt P07900); format: functional, organism-based
Vero = assay: cells; format: functional; details: Chlorocebus sabaeus
[5] = Luminescence Cell-Based Dose Retest to Confirm Inhibitors of Cancer Stem Cells. [Related pubchem assays (depositor defined):AID2717, AID2721]; format: functional; details: Homo sapiens
[6] = target: T2, Ubiquitin-conjugating enzyme E2 N (Homo sapiens, UniProt P61088); format: functional;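 also: Dose-response confirmation in a TR-FRET assay detecting UBC13-driven polyubiquitin chain formation, inhibition measured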
T2 sequence (P61088 whole entry): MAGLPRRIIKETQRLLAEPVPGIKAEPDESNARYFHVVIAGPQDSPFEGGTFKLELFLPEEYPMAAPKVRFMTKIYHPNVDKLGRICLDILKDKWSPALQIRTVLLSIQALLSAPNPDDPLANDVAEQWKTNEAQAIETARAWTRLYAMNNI

[7] = target: Neurotensin receptor type 1 (Homo sapiens, UniProt P30989); format: functional;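 also: Image-based confirmatory dose-response assay measuring agonist activity at NTR1; NTR1-expressing U2OS osteosarcoma cells imaged for beta-arrestin GFP spot formation; agonist potency where compounds increase beta-arrestin recruitment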
Neurotensin receptor type 1, sequence (P30989 whole entry): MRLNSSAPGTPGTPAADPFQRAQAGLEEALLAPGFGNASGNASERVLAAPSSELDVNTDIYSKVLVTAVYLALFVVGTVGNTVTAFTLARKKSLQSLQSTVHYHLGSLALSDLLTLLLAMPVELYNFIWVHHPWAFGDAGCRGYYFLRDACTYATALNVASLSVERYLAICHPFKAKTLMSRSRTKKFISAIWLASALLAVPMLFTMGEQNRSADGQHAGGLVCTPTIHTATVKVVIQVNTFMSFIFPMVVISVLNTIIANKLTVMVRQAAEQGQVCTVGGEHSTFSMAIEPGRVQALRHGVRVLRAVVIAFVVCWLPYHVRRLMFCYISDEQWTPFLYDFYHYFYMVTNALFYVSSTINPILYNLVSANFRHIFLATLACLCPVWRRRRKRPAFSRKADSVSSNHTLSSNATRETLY

INS1 = assay: INS-1E survival protection against cytokine death – cell-based, luminescence, retest, dose response (AID 449756); format: functional; details: Rattus norvegicus;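 also: cell death triggered by IL-1 beta plus TNF-alpha plus IFN-gamma mixture; protective hits raise ATP signal compared with cytokine alone wells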
Wee1-like protein kinase = Wee1-like protein kinase (Homo sapiens, UniProt P30291); assay: HeLa cell cycle G2/M accumulation – FACS, mechanism study for Wee1 degradation inhibitor project, late-stage follow-up, panel member Wee1 Degradation (AID 2088)
[8] = target: G2/mitotic-specific cyclin-B1 (Homo sapiens, UniProt P14635); assay: HeLa cell cycle G2/M accumulation – FACS, mechanism study for Wee1 degradation inhibitor project, late-stage follow-up, panel member Cyclin B Degradation (AID 2088)
G2/mitotic-specific cyclin-B1, sequence (P14635 whole entry): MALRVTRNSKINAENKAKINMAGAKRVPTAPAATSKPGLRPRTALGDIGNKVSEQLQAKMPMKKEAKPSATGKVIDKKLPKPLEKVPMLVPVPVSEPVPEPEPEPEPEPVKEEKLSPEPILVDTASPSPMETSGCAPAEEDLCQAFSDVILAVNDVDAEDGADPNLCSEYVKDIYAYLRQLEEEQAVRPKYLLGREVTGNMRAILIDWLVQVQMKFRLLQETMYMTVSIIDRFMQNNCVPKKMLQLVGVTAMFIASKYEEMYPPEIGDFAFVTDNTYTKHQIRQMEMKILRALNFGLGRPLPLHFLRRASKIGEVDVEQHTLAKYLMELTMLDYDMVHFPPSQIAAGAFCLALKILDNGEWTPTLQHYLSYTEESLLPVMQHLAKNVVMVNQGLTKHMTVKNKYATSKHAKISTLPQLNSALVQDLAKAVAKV

[9] = target: Glucose-6-phosphate 1-dehydrogenase (Homo sapiens, UniProt P11413); assay: inhibition of Homo sapiens G6PD, dose series – biochemical, fluorescence, selectivity assay for P. falciparum G6PD inhibitor project, dose response (AID 504792); format: functional
[10] = target: Cystic fibrosis transmembrane conductance regulator/Golgi-associated PDZ and coiled-coil motif-containing protein (Homo sapiens, UniProt P13569+Q9HD26); assay: potency against CAL PDZ-peptide interaction – biochemical, fluorescence polarization, Cerulean-tagged CAL PDZ, cherry-picks, dose response (AID 504773)
Nonstructural protein 1 = Nonstructural protein 1 (Influenza A virus, UniProt Q194T2); format: functional, Influenza A virus (A/California/07/2009(H1N1))
Nonstructural protein 1, sequence (Q194T2 whole entry): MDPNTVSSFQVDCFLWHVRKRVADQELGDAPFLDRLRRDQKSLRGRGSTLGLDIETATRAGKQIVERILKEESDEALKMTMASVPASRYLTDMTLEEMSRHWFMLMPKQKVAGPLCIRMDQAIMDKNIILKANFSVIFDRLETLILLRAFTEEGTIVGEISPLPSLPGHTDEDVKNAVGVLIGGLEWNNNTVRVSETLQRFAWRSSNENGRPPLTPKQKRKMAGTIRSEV

[11] = target: 26S proteasome non-ATPase regulatory subunit 14 (Homo sapiens, UniProt O00487); assay: inhibition of proteasome subunit RPN11 – biochemical, fluorescence polarization, uHTS hits, confirmation (AID 602368); format: functional
[12] = target: 72 kDa type IV collagenase (Homo sapiens, UniProt P08253); assay: Dose Response validation of uHTS RPN11 inhibitor hits using a MMP-2 Fluorescence assay.; format: functional
72 kDa type IV collagenase, sequence (P08253 whole entry): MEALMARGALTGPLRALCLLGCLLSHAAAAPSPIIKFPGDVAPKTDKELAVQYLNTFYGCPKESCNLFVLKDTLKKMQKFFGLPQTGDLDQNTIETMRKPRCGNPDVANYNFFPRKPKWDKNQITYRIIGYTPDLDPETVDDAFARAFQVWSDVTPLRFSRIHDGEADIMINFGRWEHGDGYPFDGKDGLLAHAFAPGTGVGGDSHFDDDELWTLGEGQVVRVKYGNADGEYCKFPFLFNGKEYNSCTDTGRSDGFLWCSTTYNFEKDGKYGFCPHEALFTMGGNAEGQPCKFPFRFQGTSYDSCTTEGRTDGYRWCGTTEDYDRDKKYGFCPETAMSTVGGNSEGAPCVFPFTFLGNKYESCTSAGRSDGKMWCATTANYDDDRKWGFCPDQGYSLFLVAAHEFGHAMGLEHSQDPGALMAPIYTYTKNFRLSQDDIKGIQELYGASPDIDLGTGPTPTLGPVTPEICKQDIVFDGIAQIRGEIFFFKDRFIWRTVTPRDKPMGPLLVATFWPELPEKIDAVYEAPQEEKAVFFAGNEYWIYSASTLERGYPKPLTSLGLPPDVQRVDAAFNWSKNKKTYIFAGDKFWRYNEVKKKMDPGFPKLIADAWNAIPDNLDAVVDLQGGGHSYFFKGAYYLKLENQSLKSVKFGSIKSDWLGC

[13] = target: Botulinum neurotoxin type F (Clostridium botulinum, UniProt P30996); assay: High-throughput multiplex microsphere dose response for inhibitors of toxin protease, specifically Botulinum neurotoxin light chain F protease, compounds from Cherry Pick 02.; format: functional; details: read-out: EC50_MICROM
Prothrombin = Prothrombin (Bos taurus, UniProt P00735); assay: thrombin protease inhibitors – biochemical, fluorescence polarization, uHTS hits, dose response (AID 602369); format: functional
[14] = target: Matrix metalloproteinase-14 (Homo sapiens, UniProt P50281); assay: Dose Response confirmation of uHTS hits for a small molecule inhibitors of MT1-MMP activation in a fluorescence assay set 1.; format: functional
[15] = target: T3, COUP transcription factor 2 (Homo sapiens, UniProt P24468); assay: Luminescence-based cell-based high throughput dose response assay to identify inhibitors of COUP-TFII (NR2F2).; format: functional;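 also: HEK293 cells transiently cotransfected with COUP-TFII expression vector and reporter; luciferase reporter luminescence driven by COUP-TFII from the pX2-168 reporter plasmid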
T3 sequence (P24468 whole entry): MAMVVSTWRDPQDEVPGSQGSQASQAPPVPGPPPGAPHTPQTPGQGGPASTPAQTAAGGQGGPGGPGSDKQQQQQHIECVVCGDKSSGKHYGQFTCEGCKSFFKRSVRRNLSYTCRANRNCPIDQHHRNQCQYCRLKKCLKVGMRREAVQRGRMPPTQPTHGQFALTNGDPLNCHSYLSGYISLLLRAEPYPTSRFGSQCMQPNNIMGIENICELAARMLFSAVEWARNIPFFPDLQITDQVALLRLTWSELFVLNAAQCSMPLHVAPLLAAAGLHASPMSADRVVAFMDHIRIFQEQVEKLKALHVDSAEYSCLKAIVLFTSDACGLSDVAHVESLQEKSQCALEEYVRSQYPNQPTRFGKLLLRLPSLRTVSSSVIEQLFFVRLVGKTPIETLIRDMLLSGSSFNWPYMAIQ

[16] = target: T4, Histone-lysine N-methyltransferase NSD2 (Homo sapiens, UniProt O96028); format: biochemical
T4 sequence (O96028 whole entry): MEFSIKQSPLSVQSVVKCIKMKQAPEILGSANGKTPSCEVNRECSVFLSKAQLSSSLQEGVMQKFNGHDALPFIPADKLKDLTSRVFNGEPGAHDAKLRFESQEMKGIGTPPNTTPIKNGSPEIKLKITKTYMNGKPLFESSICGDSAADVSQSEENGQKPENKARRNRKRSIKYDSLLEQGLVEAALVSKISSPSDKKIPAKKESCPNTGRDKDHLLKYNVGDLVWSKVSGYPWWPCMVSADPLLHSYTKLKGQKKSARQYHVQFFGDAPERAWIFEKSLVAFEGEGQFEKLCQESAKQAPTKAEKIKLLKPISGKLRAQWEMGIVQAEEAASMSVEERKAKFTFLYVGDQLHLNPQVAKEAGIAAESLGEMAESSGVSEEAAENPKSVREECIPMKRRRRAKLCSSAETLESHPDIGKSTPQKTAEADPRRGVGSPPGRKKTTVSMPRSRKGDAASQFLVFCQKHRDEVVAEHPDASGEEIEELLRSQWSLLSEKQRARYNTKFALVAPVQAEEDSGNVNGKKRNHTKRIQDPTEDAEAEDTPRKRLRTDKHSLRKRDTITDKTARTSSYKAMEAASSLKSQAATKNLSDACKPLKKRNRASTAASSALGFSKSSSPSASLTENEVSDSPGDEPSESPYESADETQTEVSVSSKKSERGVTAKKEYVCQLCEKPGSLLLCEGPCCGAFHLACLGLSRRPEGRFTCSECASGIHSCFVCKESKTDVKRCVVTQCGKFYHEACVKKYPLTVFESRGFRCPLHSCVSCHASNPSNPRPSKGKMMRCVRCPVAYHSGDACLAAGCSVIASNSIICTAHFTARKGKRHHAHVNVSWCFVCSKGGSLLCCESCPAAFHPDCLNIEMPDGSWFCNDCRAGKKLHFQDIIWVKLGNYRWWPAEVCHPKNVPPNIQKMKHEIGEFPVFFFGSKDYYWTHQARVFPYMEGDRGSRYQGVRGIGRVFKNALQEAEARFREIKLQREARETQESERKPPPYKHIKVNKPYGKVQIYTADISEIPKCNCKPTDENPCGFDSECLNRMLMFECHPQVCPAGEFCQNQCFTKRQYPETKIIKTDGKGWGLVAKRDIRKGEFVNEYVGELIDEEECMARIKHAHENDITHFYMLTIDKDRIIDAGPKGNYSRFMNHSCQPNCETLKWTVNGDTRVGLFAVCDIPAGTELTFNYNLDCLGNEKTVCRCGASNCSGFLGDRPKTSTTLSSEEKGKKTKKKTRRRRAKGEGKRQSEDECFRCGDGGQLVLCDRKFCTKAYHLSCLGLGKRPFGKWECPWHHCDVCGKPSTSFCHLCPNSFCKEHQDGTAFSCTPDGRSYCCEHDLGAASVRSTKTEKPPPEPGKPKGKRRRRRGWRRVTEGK

[17] = HGIII-sPLA2 enzyme inhibition potency – biochemical, QFRET, IC50, dose response (AID 743457);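 also: green fluorescence rise as the enzyme cleaves BODIPY PC-A2 in liposomes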
Protein Tat = Protein Tat (Human immunodeficiency virus type 1 group M subtype B (isolate HXB2)(HIV-1), UniProt P04608); format: functional;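 also: tat binding to TAR RNA read out by fluorescence polarization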
Protein Tat, sequence (P04608 whole entry): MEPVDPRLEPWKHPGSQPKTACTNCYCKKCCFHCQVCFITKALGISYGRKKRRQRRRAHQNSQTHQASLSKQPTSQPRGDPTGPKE

[18] = viability loss in THP-1 monocytes – THP-1 cells, cytotoxicity control for Vif-APOBEC3G degradation inhibitor project, dose response (AID 1117359); format: functional; details: THP-1
[19] = target: Glutathione-S-transferase (Schistosoma japonicum, UniProt Q26513); assay: GST-antibody interaction or FRET quenching – biochemical, TR-FRET, artefact control for Vif-APOBEC3G degradation inhibitor project, dose response (AID 1117362); format: functional

T1 sequence (Q00975 whole entry): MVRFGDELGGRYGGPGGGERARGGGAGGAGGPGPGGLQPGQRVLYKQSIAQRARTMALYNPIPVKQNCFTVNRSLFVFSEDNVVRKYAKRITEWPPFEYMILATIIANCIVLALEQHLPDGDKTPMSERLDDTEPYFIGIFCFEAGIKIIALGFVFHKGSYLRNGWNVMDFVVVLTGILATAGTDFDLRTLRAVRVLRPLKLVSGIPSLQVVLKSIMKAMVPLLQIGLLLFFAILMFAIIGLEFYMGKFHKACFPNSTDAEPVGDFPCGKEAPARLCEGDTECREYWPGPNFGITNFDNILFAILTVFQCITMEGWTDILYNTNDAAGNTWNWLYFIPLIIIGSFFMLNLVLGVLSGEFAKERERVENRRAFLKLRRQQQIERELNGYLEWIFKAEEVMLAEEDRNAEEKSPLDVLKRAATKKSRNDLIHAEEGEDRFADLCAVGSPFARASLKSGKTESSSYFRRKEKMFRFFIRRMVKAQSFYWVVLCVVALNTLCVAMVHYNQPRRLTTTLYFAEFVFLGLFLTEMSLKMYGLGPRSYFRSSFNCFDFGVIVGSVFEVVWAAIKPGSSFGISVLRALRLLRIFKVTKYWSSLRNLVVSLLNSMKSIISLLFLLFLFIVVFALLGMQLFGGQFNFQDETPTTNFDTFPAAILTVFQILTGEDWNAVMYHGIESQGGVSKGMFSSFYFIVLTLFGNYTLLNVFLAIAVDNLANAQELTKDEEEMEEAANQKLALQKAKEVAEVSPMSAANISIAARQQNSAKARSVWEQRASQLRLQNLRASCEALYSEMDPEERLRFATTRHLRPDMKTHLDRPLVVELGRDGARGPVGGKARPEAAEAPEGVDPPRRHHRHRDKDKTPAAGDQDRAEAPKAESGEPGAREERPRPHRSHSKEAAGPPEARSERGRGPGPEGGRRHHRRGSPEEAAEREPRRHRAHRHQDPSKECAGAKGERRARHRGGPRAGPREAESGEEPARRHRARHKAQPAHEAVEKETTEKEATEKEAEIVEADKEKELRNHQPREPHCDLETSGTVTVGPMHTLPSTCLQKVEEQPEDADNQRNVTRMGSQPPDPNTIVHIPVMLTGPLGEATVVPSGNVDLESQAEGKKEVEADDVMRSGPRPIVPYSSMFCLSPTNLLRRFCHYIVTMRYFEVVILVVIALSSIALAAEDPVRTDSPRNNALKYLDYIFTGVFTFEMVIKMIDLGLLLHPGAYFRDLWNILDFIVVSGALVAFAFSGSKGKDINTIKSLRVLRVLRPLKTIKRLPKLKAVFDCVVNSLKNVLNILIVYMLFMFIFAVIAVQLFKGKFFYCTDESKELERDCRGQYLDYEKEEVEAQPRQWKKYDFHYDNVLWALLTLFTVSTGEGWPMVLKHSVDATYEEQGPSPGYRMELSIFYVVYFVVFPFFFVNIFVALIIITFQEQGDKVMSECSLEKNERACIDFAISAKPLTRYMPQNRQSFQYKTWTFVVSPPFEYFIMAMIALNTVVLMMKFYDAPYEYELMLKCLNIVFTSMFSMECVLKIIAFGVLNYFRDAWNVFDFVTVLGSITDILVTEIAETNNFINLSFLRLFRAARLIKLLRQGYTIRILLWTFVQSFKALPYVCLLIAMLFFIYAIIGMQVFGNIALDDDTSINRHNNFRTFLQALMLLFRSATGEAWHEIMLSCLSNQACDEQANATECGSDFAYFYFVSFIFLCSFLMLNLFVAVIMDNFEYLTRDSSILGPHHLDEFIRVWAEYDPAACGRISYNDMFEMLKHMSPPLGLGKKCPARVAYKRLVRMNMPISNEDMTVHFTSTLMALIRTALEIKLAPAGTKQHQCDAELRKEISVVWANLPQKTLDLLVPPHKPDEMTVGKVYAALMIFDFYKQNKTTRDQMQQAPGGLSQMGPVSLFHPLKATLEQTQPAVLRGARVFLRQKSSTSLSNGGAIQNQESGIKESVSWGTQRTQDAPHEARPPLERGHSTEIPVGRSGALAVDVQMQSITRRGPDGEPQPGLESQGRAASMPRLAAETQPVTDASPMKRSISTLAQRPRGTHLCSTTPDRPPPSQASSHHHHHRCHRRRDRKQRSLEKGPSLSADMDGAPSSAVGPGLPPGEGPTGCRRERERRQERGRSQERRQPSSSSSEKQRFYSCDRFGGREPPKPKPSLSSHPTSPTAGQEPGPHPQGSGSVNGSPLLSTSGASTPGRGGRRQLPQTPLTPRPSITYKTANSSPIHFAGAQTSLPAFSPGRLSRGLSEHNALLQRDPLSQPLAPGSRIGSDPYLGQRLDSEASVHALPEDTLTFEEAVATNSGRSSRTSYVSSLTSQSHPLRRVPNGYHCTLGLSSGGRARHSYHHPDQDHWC
T1 sequence (Q02410 whole entry): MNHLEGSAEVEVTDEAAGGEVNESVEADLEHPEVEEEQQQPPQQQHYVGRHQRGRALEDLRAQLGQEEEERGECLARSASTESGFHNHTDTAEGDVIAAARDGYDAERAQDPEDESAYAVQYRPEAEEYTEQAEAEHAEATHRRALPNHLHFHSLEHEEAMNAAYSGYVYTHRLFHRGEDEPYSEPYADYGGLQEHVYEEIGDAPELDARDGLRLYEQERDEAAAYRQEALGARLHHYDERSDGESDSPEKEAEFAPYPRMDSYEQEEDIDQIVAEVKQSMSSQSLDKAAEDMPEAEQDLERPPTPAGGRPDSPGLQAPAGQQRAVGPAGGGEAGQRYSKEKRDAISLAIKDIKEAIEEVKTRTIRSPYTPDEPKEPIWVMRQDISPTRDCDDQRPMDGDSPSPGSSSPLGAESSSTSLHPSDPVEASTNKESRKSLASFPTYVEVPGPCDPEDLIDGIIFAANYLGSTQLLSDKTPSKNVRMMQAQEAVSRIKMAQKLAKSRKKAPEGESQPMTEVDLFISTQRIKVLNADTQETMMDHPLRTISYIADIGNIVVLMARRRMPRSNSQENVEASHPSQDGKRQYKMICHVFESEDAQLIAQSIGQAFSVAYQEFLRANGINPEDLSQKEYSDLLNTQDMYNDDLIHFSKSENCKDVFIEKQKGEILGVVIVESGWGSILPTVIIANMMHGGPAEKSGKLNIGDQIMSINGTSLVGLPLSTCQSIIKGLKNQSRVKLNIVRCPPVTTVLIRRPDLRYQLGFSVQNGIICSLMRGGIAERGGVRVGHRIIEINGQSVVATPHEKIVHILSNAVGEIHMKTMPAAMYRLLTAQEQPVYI

O=C(NCCc1ccccn1)c1cc(-c2ccco2)nc2ccccc12
IC50 [1]: > 56.8 µM (inactive) | IC50 [2]: > 56.8 µM (inactive)

O=[N+]([O-])c1cccc(C=NNc2ccc3ccccc3n2)c1O
IC50 [3]: > 66.6 µM (inactive) | IC50 (Beta-galactosidase): > 66.6 µM (inactive) | AC50 [4]: 2.76 µM (active) | CC50 (Vero): 1.44 µM (active)

CC(C)C[C@H]1CN=C(Nc2ccccc2)N1CC1CCC(C(C)(C)C)CC1 (some centres not stated)
AC50 [5]: 5.02 µM (active) | IC50 [6]: > 20 µM (inactive) | EC50 [7]: 15.7 µM (active) | AC50 (INS1): 6.54 µM (active)

CC(C)c1ccc(NC(=O)CCCOc2cc(=O)n(C)c3ccccc23)cc1
EC50 (Wee1-like protein kinase): > 49.7 µM (inactive) | EC50 [8]: > 49.7 µM (inactive)

COc1cc(N(C)C)ccc1C=c1c2ccccc2n2c1cc(-c1ccccc1)[n+]2C
IC50 [9]: > 80 µM (inactive) | AC50 [10]: 39.9 µM (active) | IC50 (Nonstructural protein 1): 3.2 µM (active) | AC50 [4]: 7.6 µM (active) | IC50 [11]: 24.9 µM (active) | IC50 [12]: > 100 µM (inactive) | EC50 [13]: > 20 µM (inactive) | IC50 (Prothrombin): 11.8 µM (active) | IC50 [14]: 14.6 µM (active) | IC50 [15]: 4.89 µM (active) | AC50 [16]: 3.07 µM (active) | IC50 [17]: 19.2 µM (inactive) | IC50 (Protein Tat): > 100 µM (active) | CC50 [18]: 0.22 µM (active) | IC50 [19]: 3.69 µM (active)
